Measured values reported in US20260315604A1, “OTUB1 Small-Molecule Binders and OTUB1-recruiting Deubiquitinase-targeting Chimeras (DUBTACs)” (ICAHN SCHOOL OF MEDICINE AT MOUNT SINAI, priority 2023, published 2026).

Biological target: T1, Human OTUB1 wild-type (Homo sapiens, UniProt Q96FW1)
T1 construct: His tag (N); made in house; host or cells: E. coli BL21-CodonPlus (DE3)-RIPIL
Assay: Covalent modification of OTUB1 (adduct formation), mass spectrometry-based assay (OTUB1 covalent binders; selected CFTR or cGAS based bivalent compounds)
Type: binding
Details: covalent adduct formation with OTUB1 protein
In short: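 His-tagged human OTUB1 (10 μM), E. coli-expressed, incubated with compound (2500 μM) in 50 mM Tris-HCl pH 7.5, 150 mM NaCl, 0.5 mM TCEP for 1 h at room temperature. Adduct detected by intact-protein LC/ESI-TOF mass spectrometry after buffer exchange; duplicates.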

T1 sequence (Q96FW1 whole entry): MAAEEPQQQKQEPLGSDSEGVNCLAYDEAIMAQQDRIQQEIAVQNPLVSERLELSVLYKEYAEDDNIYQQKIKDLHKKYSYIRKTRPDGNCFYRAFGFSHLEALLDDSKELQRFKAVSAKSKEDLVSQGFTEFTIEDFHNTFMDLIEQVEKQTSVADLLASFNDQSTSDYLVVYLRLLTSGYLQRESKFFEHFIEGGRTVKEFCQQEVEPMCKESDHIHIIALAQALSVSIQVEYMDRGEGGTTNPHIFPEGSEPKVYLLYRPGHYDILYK

% of OTUB1 modified	Structure (SMILES)
30%	Cc1ccc(C(=O)N2CC3(CN(C(=O)/C=C/CN(C)C)C3)C2)s1 [XS185-69, (E)-4-(dimethylamino)-1-(6-(5-methylthiophene-2-carbonyl)-2,6-diazaspiro[3.3]heptan-2-yl)but-2-en-1-one]
55%	CC1CCC(C(=O)N2CC3CC(C2)N3C(=O)/C=C/CN(C)C)C1 (centres unmarked) [XS190-170, (E)-4-(dimethylamino)-1-(3-(3-methylcyclopentane-1-carbonyl)-3,6-diazabicyclo[3.1.1]heptan-6-yl)but-2-en-1-one]
70%	CN(C)C/C=C/C(=O)N1C2CC1CN(C(=O)c1csc3ccccc13)C2 [XS190-47, (E)-1-(3-(benzo[b]thiophene-3-carbonyl)-3,6-diazabicyclo[3.1.1]heptan-6-yl)-4-(dimethylamino)but-2-en-1-one]
15%	CN(C)C/C=C/C(=O)N1CC2(CCN(c3cc4ccccc4s3)CC2)C1 [XS185-147, (E)-1-(7-(benzo[b]thiophen-2-yl)-2,7-diazaspiro[3.5]nonan-2-yl)-4-(dimethylamino)but-2-en-1-one]
92%	CN(C)C/C=C/C(=O)N1C2CC1CN(C(=O)c1ccc(C3CCN(C)CC3)s1)C2 [XS197-74, (E)-4-(dimethylamino)-1-(3-(5-(1-methylpiperidin-4-yl)thiophene-2-carbonyl)-3,6-diazabicyclo[3.1.1]heptan-6-yl)but-2-en-1-one]
5%	COc1ccc2c(c1)CN(C(=O)/C=C/CN(C)C)C2 [XS209-25, (E)-4-(dimethylamino)-1-(5-methoxyisoindolin-2-yl)but-2-en-1-one]
20%	Cc1cnc(NC(=O)C2(C)CN(C(=O)/C=C/CN(C)C)C2)s1 [XS209-38, (E)-1-(4-(dimethylamino)but-2-enoyl)-3-methyl-N-(5-methylthiazol-2-yl)azetidine-3-carboxamide]
92%	CN(C)C(C)(C)C#CC(=O)N1CC(NC(=O)c2cc3c(s2)CCCC3)C1 [XS224-159, N-(1-(4-(dimethylamino)-4-methylpent-2-ynoyl)azetidin-3-yl)-4,5,6,7-tetrahydrobenzo[b]thiophene-2-carboxamide]
60%	CCCC(=O)N1CC2CC(C1)N2C(=O)/C=C/CN(C)C [XS209-40, (E)-1-(3-butyryl-3,6-diazabicyclo[3.1.1]heptan-6-yl)-4-(dimethylamino)but-2-en-1-one]
100%	CN(C)C/C=C/C(=O)N1CCN(c2cc3ccccc3s2)C(=O)C1 [XS175-179, (E)-1-(benzo[b]thiophen-2-yl)-4-(4-(dimethylamino)but-2-enoyl)piperazin-2-one]
90%	CN(C)C/C=C/C(=O)N1C2CC1CN(C(=O)c1cc3ccccc3s1)C2 [XS190-46, (E)-1-(3-(benzo[b]thiophene-2-carbonyl)-3,6-diazabicyclo[3.1.1]heptan-6-yl)-4-(dimethylamino)but-2-en-1-one]
18%	CN(C)C/C=C/C(=O)N1CC2(CC(C(=O)Nc3cc4c(s3)CCCC4)C2)C1 [XS185-114, (E)-2-(4-(dimethylamino)but-2-enoyl)-N-(4,5,6,7-tetrahydrobenzo[b]thiophen-2-yl)-2-azaspiro[3.3]heptane-6-carboxamide]
80%	CN(C)C/C=C/C(=O)N1C2CC1CN(C(=O)c1ccc(C#CCO)s1)C2 [XS197-94, (E)-4-(dimethylamino)-1-(3-(5-(3-hydroxyprop-1-yn-1-yl)thiophene-2-carbonyl)-3,6-diazabicyclo[3.1.1]heptan-6-yl)but-2-en-1-one]
10%	Cc1cccc(N2CCN(C(=O)/C=C/CN(C)C)CC2=O)n1 [XS165-109, (E)-4-(4-(dimethylamino)but-2-enoyl)-1-(6-methylpyridin-2-yl)piperazin-2-one]
70%	Cc1ccsc1N1CCN(C(=O)/C=C/CN(C)C)CC1=O [XS175-68, (E)-4-(4-(dimethylamino)but-2-enoyl)-1-(3-methylthiophen-2-yl)piperazin-2-one]
98%	Cc1ccc(C(=O)N2CC3CC(C2)N3C(=O)C#CCN(C)C)s1 [XS209-26, 4-(dimethylamino)-1-(3-(5-methylthiophene-2-carbonyl)-3,6-diazabicyclo[3.1.1]heptan-6-yl)but-2-yn-1-one]
40%	Cc1cnc(NC(=O)C2(O)CN(C(=O)/C=C/CN(C)C)C2)s1 [XS209-39, (E)-1-(4-(dimethylamino)but-2-enoyl)-3-hydroxy-N-(5-methylthiazol-2-yl)azetidine-3-carboxamide]
90%	Cc1ccc(C(=O)N2CC3CC(C2)N3C(=O)/C=C/CN(C)C)s1 [XS185-72, (E)-4-(dimethylamino)-1-(3-(5-methylthiophene-2-carbonyl)-3,6-diazabicyclo[3.1.1]heptan-6-yl)but-2-en-1-one]
98%	CN(C)CC#CC(=O)N1CC(C(=O)Nc2cc3ccccc3s2)C1 [XS224-106, N-(benzo[b]thiophen-2-yl)-1-(4-(dimethylamino)but-2-ynoyl)azetidine-3-carboxamide]

% of OTUB1 modified	Structure (SMILES)
22%	Cc1ccc(NC(=O)C2(C)CN(C(=O)/C=C/CN(C)C)C2)s1 [XS209-21, (E)-1-(4-(dimethylamino)but-2-enoyl)-3-methyl-N-(5-methylthiophen-2-yl)azetidine-3-carboxamide]
30%	CC(=O)N1CCC2(CC1)CC(C(=O)N1CC3CC(C1)N3C(=O)/C=C/CN(C)C)C2 [XS197-176, (E)-1-(3-(7-acetyl-7-azaspiro[3.5]nonane-2-carbonyl)-3,6-diazabicyclo[3.1.1]heptan-6-yl)-4-(dimethylamino)but-2-en-1-one]
58%	CN(C)C/C=C/C(=O)N1CCN(c2c[nH]c3ccccc23)C(=O)C1 [XS185-43, (E)-4-(4-(dimethylamino)but-2-enoyl)-1-(1H-indol-3-yl)piperazin-2-one]
97%	CN(C)CC#CC(=O)N1CC(NC(=O)c2cc3ccccc3s2)C1 [XS224-155, A-(1-(4-(dimethylamino)but-2-ynoyl)azetidin-3-yl)benzo[b]thiophene-2-carboxamide]
1%	CN(C)C/C=C/C(=O)N1CC2(C1)CN(c1cc3ccccc3s1)C2 [XS185-46, (E)-1-(6-(benzo[b]thiophen-2-yl)-2,6-diazaspiro[3.3]heptan-2-yl)-4-(dimethylamino)but-2-en-1-one]
85%	CN(C)C/C=C/C(=O)N1C2CC1CN(C(=O)c1ccc(N3CCN(C)CC3)s1)C2 [XS209-185, (E)-4-(dimethylamino)-1-(3-(5-(4-methylpiperazin-1-yl)thiophene-2-carbonyl)-3,6-diazabicyclo[3.1.1]heptan-6-yl)but-2-en-1-one]
90%	CN(C)CC#CC(=O)N1CC(C)(C(=O)Nc2cc3ccccc3s2)C1 [XS209-175, N-(benzo[b]thiophen-2-yl)-1-(4-(dimethylamino)but-2-ynoyl)-3-methylazetidine-3-carboxamide]
70%	CC(=O)N1CC2CC(C1)N2C(=O)/C=C/CN(C)C [XS190-186, (E)-1-(3-acetyl-3,6-diazabicyclo[3.1.1]heptan-6-yl)-4-(dimethylamino)but-2-en-1-one]
10%	Cc1ccc(N2CCN(C(=O)/C(C#N)=C/C(C)(C)C)CC2=O)s1 [XS165-177, (E)-4,4-dimethyl-2-(4-(5-methylthiophen-2-yl)-3-oxopiperazine-1-carbonyl)pent-2-enenitrile]
47%	Cc1ccc(NC(=O)C2(O)CN(C(=O)/C=C/CN(C)C)C2)s1 [XS209-22, (E)-1-(4-(dimethylamino)but-2-enoyl)-3-hydroxy-N-(5-methylthiophen-2-yl)azetidine-3-carboxamide]
95%	Cc1ccc(N2CC3CCC(C2=O)N3C(=O)C#CCN(C)C)s1 (centres unmarked) [XS197-185, 8-(4-(dimethylamino)but-2-ynoyl)-3-(5-methylthiophen-2-yl)-3,8-diazabicyclo[3.2.1]octan-2-one]
15%	Cc1ccc(C(=O)N2C3CCC2CN(C(=O)/C=C/CN(C)C)C3)s1 [XS185-71, (E)-4-(dimethylamino)-1-(8-(5-methylthiophene-2-carbonyl)-3,8-diazabicyclo[3.2.1]octan-3-yl)but-2-en-1-one]
70%	CN(C)C/C=C/C(=O)N1C2CC1CN(C(=O)c1csc3c1CCCC3)C2 [XS190-49, (E)-4-(dimethylamino)-1-(3-(4,5,6,7-tetrahydrobenzo[b]thiophene-3-carbonyl)-3,6-diazabicyclo[3.1.1]heptan-6-yl)but-2-en-1-one]
15%	CN(C)C/C=C/C(=O)N1Cc2ccccc2C1 [XS197-186, (E)-4-(dimethylamino)-1-(isoindolin-2-yl)but-2-en-1-one]
75%	CN(C)C/C=C/C(=O)N1C2CCC1C(=O)N(C1=CCCCC1)C2 (centres unmarked) [XS209-30, (E)-3-(cyclohex-1-en-1-yl)-8-(4-(dimethylamino)but-2-enoyl)-3,8-diazabicyclo[3.2.1]octan-2-one]
38%	Cc1cccc(N2CCN(C(=O)/C=C/CN(C)C)CC2=O)c1 [XS165-99, (E)-4-(4-(dimethylamino)but-2-enoyl)-1-(n-tolyl)piperazin-2-one]
15%	Cc1ccc(C(=O)NC2CC(NC(=O)C#CC(C)(C)N(C)C)C2)s1 (centres unmarked) [XS224-149, N-(3-(4-(dimethylamino)-4-methylpent-2-ynamido)cyclobutyl)-5-methylthiophene-2-carboxamide]
70%	Cc1ccc(N2CCN(C(=O)/C=C/CN3CCCC3)CC2=O)s1 [XS165-154, (E)-1-(5-methylthiophen-2-yl)-4-(4-(pyrrolidin-1-yl)but-2-enoyl)piperazin-2-one]
60%	Cc1ccc(C(=O)N2CC(NC(=O)C#CC(C)(C)N(C)C)C2)s1 [XS224-145, 4-(dimethylamino)-4-methyl-N-(1-(5-methylthiophene-2-carbonyl)azetidin-3-yl)pent-2-ynamide]
